Results on three molecules are retold here after article PMC7582725, “Suppression of hTAS2R16 Signaling by Umami Substances” (International Journal of Molecular Sciences, 2020).

Test [1] has as its target T1, hTAS2R16 (Homo sapiens, UniProt Q9NYV7).
T1 construct: expressed in transfected cells; host or cells: HEK293T
T1 sequence (Q9NYV7 1-291): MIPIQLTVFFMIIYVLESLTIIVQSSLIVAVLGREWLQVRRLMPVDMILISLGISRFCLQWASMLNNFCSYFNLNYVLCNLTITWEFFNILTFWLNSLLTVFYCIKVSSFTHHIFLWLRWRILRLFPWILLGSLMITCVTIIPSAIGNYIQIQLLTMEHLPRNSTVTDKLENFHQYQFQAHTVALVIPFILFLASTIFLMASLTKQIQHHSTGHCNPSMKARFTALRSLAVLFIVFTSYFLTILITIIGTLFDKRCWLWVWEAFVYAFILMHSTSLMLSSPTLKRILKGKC
As to the kind of experiment: Cellular Ca2+ response, cell-based assay (Calcium-4, FlexStation III) in HEK293T cells co-expressing wild-type hTAS2R16 and G16αgust44. The following applies: for IC50: means ± SEM; for Maximal Response of salicin: Table 1; for Maximal Response of salicin, WT: Table 3; for mechanism of antagonism at hTAS2R16: from salicin concentration–response curves at graded antagonist concentrations. On the procedure: (§1) HEK293T cells were purchased from American Type Culture Collection (ATCC; Manassas, VA, USA) and cultured as described previously. The plasmids hTAS2R16 and G16αgust44 were constructed as described previously. G16αgust44 and hTAS2R16 were cloned into a cytomegalovirus promoter-based vector and expressed constitutively. Point mutants of N96T and P44T on hTAS2R16 clone and DNA sequencings were performed by Macrogen (Geumcheon-gu, Seoul, Korea). The hTAS2R16 or point mutant expression plasmid was co-transfected with G16αgust44 expression plasmid (4:1) into HEK293T cells using Lipofectamine 2000 (Invitrogen, Carlsbad, CA, USA).
(§2) The umami substances-induced changes in the cytosolic Ca^2+ concentration were measured using a FlexStation III microplate reader (Molecular Devices, Sunnyvale, CA, USA). HEK293T cells transfected with hTAS2R16 were seeded onto 96-well black-wall CellBind surface plates (Corning, NY, USA) for 18–24 h before use. […] The cells were incubated in the dark for 30 min at 37 °C, and then for 15 min at 27 °C in assay buffer consisting of Calcium-4 (FLIPR Calcium 4 Assay Kit, Molecular Devices) and probenecid or the umami compounds. Following treatment, the fluorescence intensity (excitation, 486 nm; emission, 525 nm) of the cell was measured. The relative changes in cell Ca^2+ were plotted as ΔF/F0 on the y-axis, where ΔF is the change in Calcium-4 fluorescence intensity at each time point and F0 is the fluorescence intensity before treatment. The relative response induced by 10 mM salicin was assigned a value of 100.

The next test has as its target T2, hTAS2R16 N96T (Homo sapiens, UniProt Q9NYV7, N96T).
T2 construct: expressed in transfected cells; host or cells: HEK293T
T2 sequence (Q9NYV7 1-291 N96T): T1 sequence (Q9NYV7 1-291) with N96T
The experiment in a line: Cellular Ca2+ response, cell-based assay in HEK293T cells expressing probenecid-insensitive mutant hTAS2R16 N96T. The following applies: Table 3. On the procedure:
as §1, §2

A further test deals with T3, hTAS2R16 P44T (Homo sapiens, UniProt Q9NYV7, P44T).
T3 construct: expressed in transfected cells; host or cells: HEK293T
T3 sequence (Q9NYV7 1-291 P44T): T1 sequence (Q9NYV7 1-291) with P44T
As to the kind of experiment: Cellular Ca2+ response, cell-based assay in HEK293T cells expressing probenecid-insensitive mutant hTAS2R16 P44T. To be noted: for Maximal Response of salicin, P44T: Table 3. On the procedure: as §1, §2

The target in test [2] is T1, hTAS2R16. The experiment in a line: Ca2+ response of hTAS2R16-expressing HEK293T cells to bitter ligands in absence and presence of umami substances (Figure 1; fura-2 F340/F380 imaging / cell-based assay). To be noted: Glu-Glu 6 mM, Gly-Gly 6 mM; for inhibition of Ca2+ response to arbutin: 5 mM arbutin; for inhibition of Ca2+ response to arbutin / inhibition of Ca2+ response to phenyl β-D-glucopyranoside: MSG 80 mM, IMP 20 mM, L-theanine 80 mM. On the procedure: We first verified if non-peptide umami substances affect the downstream signaling mechanism, such as changes in intracellular Ca^2+ of the human bitter taste receptor. […] The increase in fluorescence intensity ratio (F340/F380) with 10 mM salicin was expressed as 100. […] In addition to salicin, hTAS2R16 also recognizes bitter sugars such as phenyl β-D-glucopyranoside and arbutin, a glycosylated hydroquinone extracted from the bearberry plant in the genus Arctostaphylos.
(A) Chemical structures of tested compounds. Summarized data (B) and representative traces (C) showing responses of HEK293T cells co-expressing hTAS2R16 and Gα16gust44 to 10 mM salicin in the absence and presence of umami substances in a cell-based assay. (D,E) Representative ratiometric images of fura-2-loaded hTAS2R16-expressing cells in response to the other ligands, 5 mM arbutin (D) or phenyl β-D-glucopyranoside (E), in the presence of umami substances. The data were normalized as percentages to the maximal signal obtained with the ligands. The color scale indicates the F340/F380 ratio. Scale bar: 11.04 μm. Data are presented as means ± standard error of the mean (SEM) of at least three separate experiments. * p < 0.05, ** p < 0.01, and *** p < 0.001 vs. the 0 mM sample group by Student’s t-test.
as §2, with “Following treatment, the fluorescence intensity (excitation, 486 nm; emission, 525 nm) of the cell was measured.” left out
Cells were seeded onto 96-well black-wall imaging plates (BD Falcon Labware) for 18–26 h prior to their use in an experiment. […] The cells were rinsed with the buffer, incubated in probenecid or sample for 30 min, and then treated with solution containing the ligand. The Fura-2AM-induced fluorescence intensity (excitation at 340 and 380 nm) was measured at emission wavelength of 510 nm using a computer-controlled filter changer (Lambda DG4; Sutter, San Rafael, CA, USA), an Andor Luca CCD camera (Andor Technology, Belfast, UK), and an inverted fluorescence microscope (IX-71; Olympus, Tokyo, Japan). Images were obtained at 3-s intervals and analyzed using MetaFluor software (Molecular Devices, Sunnyvale, CA, USA).

Test [3] concerns umami taste. As to the kind of experiment: Human sensory evaluation of umami taste (literature). The class given is in vivo. The following applies: MSG vs Glu-Glu; from cited thresholds.
The subject of test [4] is umami taste. The following applies: cited from earlier work.
Test [5] concerns the target T1, hTAS2R16. The following applies: in the presence of 3 mM salicin; read-out: reported IC50; cited from earlier work.
The target of test [6] is hTAS2R16 (human bitter taste receptor, type 2 taste receptor 16), wild type (human) (UniProt Q9NYV7).
Test [7] has the same target. This is another data set of the same source.
In the next test the target is hTAS2R16 N96T (human) (UniProt Q9NYV7).
The target in another test is hTAS2R16 P44T (human) (UniProt Q9NYV7).
The mark [8] stands for this setting: pretreatment with sample 0.3 mM.

Positions count from the first letter of the chain named. Several values for one entry are separate records, joined by “and”; a condition that tells them apart may be missing. Equal values may be shown once. Where a name gives a salt, the structure may show the parent alone. Read-outs that look alike come from different tables or passages of the source.

For the molecule `N[C@@H](CCC(=O)O)C(=O)O` [MSG, L-glutamic acid monosodium salt hydrate], on hTAS2R16 [1] (10 mM salicin, graded IMP below or at 10 mM), the “synergistic effect with IMP on suppression of salicin response” value is given as “produce similar synergistic effects with IMP”. The half-inhibitory concentration (IC50) (commonly the concentration needed to halve the response being measured) at hTAS2R16 [1] (IC50 in the presence of 10 mM salicin, Table 2, + IMP 0 mM) is 64.67 ± 0.04 mM; at hTAS2R16 [1] (IC50 of umami substances in the presence of 10 mM salicin, Figure 2B, pretreatment with sample, fixed 10 mM salicin), 51 mM and 51.1 mM. In addition, the “Maximal Response of salicin” value on hTAS2R16 [1] (pretreatment with sample 10 mM) was 0.55 ΔF/F0; at hTAS2R16 [1] (pretreatment with sample 30 mM), 0.54 ΔF/F0; at hTAS2R16 [1] (pretreatment with sample 80 mM), 0.49 ΔF/F0; on hTAS2R16 [1] (pretreatment with sample 100 mM), 0.47 ΔF/F0. The “Maximal Response of salicin, WT” value at hTAS2R16 [1] (pretreatment with sample 80 mM) is reported as 0.49 ΔF/F0. The “mechanism of antagonism at hTAS2R16” value on hTAS2R16 [1] was “surmountable antagonist”. Also, on hTAS2R16 [1] (sample at highest concentration, 100 mM), the “increase of the EC50 of salicin” value stood at 8.5 fold. Moreover, the “Maximal Response of salicin, N96T” value on hTAS2R16 N96T (pretreatment with sample 80 mM) is reported as 0.65 ΔF/F0. Further, the “Maximal Response of salicin, P44T” value at hTAS2R16 P44T (pretreatment with sample 80 mM) is reported as 0.57 ΔF/F0. Besides, the “inhibition of Ca2+ response to arbutin” value on hTAS2R16 [2] is “significantly inhibited”. Besides, the “reduction of intracellular Ca2+ influx evoked by salicin” value on hTAS2R16 [2] (10 mM salicin, MSG 10 and 80 mM, IMP 10 and 20 mM, L-theanine 10 and 80 mM, probenecid 0.1 and 0.3 mM) is on record as “concentration-dependent reduction”. Moreover, the “inhibition of Ca2+ response to phenyl β-D-glucopyranoside” value at hTAS2R16 [2] is “significantly inhibited”. The “umami taste threshold, times lower than Glu-Glu” value in the test with umami taste [3] is “around 10 times”. The detection threshold with umami taste [4] is on record as 0.7 mM. In the test with umami taste [4] (enhancing umami taste intensity, MSG = 1.0), the “umami taste intensity (relative)” value is given as 1.0. For the same molecule, the umami taste threshold in the test on umami taste [4] (human sensory evaluation studies) is 30 mg%.
Take `CCCN(CCC)S(=O)(=O)c1ccc(C(=O)O)cc1` [Probenecid, ρ-(dipropylsulfamoyl)benzoic acid]: the “Maximal Response of salicin” value on hTAS2R16 [1] (pretreatment with sample 0.1 mM) is 0.47 ΔF/F0. Also, at hTAS2R16 [1] (setting [8]), the “Maximal Response of salicin” value is recorded as 0.23 ΔF/F0 and the “Maximal Response of salicin, WT” value is recorded as 0.23 ΔF/F0. Besides, at hTAS2R16 [1] (pretreatment with sample 1 mM), the “Maximal Response of salicin” value is given as 0.07 ΔF/F0. In addition, on hTAS2R16 [1], the “mechanism of antagonism at hTAS2R16” value was “full insurmountable antagonism”. For the same molecule, the “attenuation of salicin response by pretreatment, WT receptor” value on hTAS2R16 [1] (salicin 0.003–30 mM, probenecid 0.3 mM, L-theanine 80 mM) was “significant attenuation”. In addition, the “Maximal Response of salicin, N96T” value on hTAS2R16 N96T (setting [8]) was 0.68 ΔF/F0. Further, the “Maximal Response of salicin, P44T” value on hTAS2R16 P44T (setting [8]) is on record as 0.58 ΔF/F0. For the same molecule, on hTAS2R16 P44T (salicin 0.003–30 mM, probenecid 0.3 mM, MSG 80 mM, L-theanine 80 mM), the “attenuation of salicin response by pretreatment, P44T mutant” value is “not in cells expressing the two mutants”. For the same molecule, at hTAS2R16 [2], the “inhibition of Ca2+ response to arbutin” value was “inhibited” and the “inhibition of Ca2+ response to phenyl β-D-glucopyranoside” value was “inhibited”. Further, the IC50 at hTAS2R16 [5] was 0.29 mM.
Glu-Glu (peptide): the maximal Ca2+ response (ΔF/F0) to salicin (0-30 mM) in cells expressing hTAS2R16 with Glu-Glu at 0, 1, 3, 6 and 10 mM (0.54 at 0 mM); value at 10 mM Glu-Glu in test [6] is 0.33 ΔF/F0. Moreover, in test [7], the maximal Ca2+ response (ΔF/F0) to salicin in cells expressing wild-type hTAS2R16 after pretreatment with 6 mM Glu-Glu (0.54 without Glu-Glu) was 0.4 ΔF/F0. Moreover, the maximal Ca2+ response (ΔF/F0) to salicin in cells expressing hTAS2R16 N96T after pretreatment with 6 mM Glu-Glu (0.61 without Glu-Glu); the text says the inhibition by Glu-Glu is lost in this mutant with hTAS2R16 N96T (human) is 0.65 ΔF/F0. The maximal Ca2+ response (ΔF/F0) to salicin in cells expressing hTAS2R16 P44T after pretreatment with 6 mM Glu-Glu (0.62 without Glu-Glu) with hTAS2R16 P44T (human) was 0.42 ΔF/F0.
